Measurements reported in PMC3250956, “Functional characterization and analgesic effects of mixed cannabinoid receptor/T-type channel ligands” (Molecular Pain, 2011).
Where two headings read alike, the source gives them in different places.

How the values were obtained:
formalin-induced pain = assay: Formalin test (formalin-induced nociception); format: in vivo, mice; settings: for effect on second phase of formalin-induced nociception / effect on first phase of formalin-induced nociception: i.pl., co-injected with formalin; for effect on second phase of formalin-induced nociception: 0.03-3 μg/paw; for effect on first phase of formalin-induced nociception: NMP-4 and NMP-144 0.03-3 μg/paw, NMP-7 0.3-3 μg/i.pl.; for reduction of pain response time, first (neurogenic) phase / reduction of pain response time, second (inflammatory) phase: 10 min prior, NMP-4 1-10 μg/i.t., NMP-144 0.1-1 μg/i.t., NMP-7 3-30 μg/i.t., mice
Protocol: All experiments were conducted following the protocol approved by the Institutional Animal Care and Use Committee (protocol #M09130) and all efforts were made to minimize animal suffering. Male mice of C57BL/6J strain weighing 25~30 g, 10 weeks old were used. Animals were housed at a maximum number of five per cage (30 × 20 × 15 cm) with food and water ad libitum. They were kept in 12 h light/dark cycles (lights on at 7:00 a.m.) at a temperature of 23 ± 1°C. All manipulations were carried out between 11:00 am and 3:00 pm. […] Control animals received the same vehicle used to dilute the compounds. When drugs were delivered by intraperitoneal (i.p.) route, a constant volume of 10 ml/kg body weight was injected. When drugs were administered by intrathecal (i.t.) or intraplantar (i.pl.) routes, respectively volumes of 5 μl or 20 μl were injected. Appropriate vehicle-treated groups were also assessed simultaneously.
The formalin test is a widely used model that allows us to evaluate two different types of pain: neurogenic pain (phase 1) is caused by direct activation of nociceptive nerve terminals, while inflammatory pain (phase 2) is mediated by a combination of peripheral input and spinal cord sensitization. Animals received 20 μl of a formalin solution (1.25%) made up in PBS injected intraplantarly (i.pl.) in the ventral surface of the right hindpaw. Following i.pl. injection of formalin, the animals were immediately placed individually into observation chambers and the time spent licking or biting the injected paw was be recorded and considered as nociceptive response. We observed animals individually from 0-5 min (neurogenic phase) and 15-30 min (inflammatory phase).
Intrathecal injections were given to fully conscious mice using the method previously described by Hylden and Wilcox. Briefly, the animals were manually restrained, and a 30-gauge needle connected by a polyethylene tube to a 25 μl Hamilton syringe (Hamilton, Birmingham, UK) was inserted through the skin and between the vertebrae into the […] space of the L5-L6 spinal segments. Intrathecal injections were given over a period of 5 seconds.

Human CB2 [1] = target: T1, Human CB2 (Homo sapiens, UniProt P34972); assay: Radioligand competitive binding, [3H]CP55940, HEK293 cells; parameters: expressed in transfected cells; settings: for Human CB2 (%) primary radioligand competitive binding: ligand 10 μM, HEK293 cells
Protocol: (§1) HEK293 cells and CHO cells were used in the radioligand binding assay while tsA-201 cells were used in the electrophysiological study. Human CB2, human 5-HT2A, rat 5-HT2C used in the binding studies were cloned into pcDNA5.0FRT and cell lines were made using the FlpIn system from Invitrogen. tsA-201 cell culture and transient calcium channel transfection were performed as described previously. In brief, tsA-201 cells were transfected using the calcium phosphate method. Cav3.1, 3.2 and 3.3 α1 subunits were transfected individually with yellow fluorescent protein as a transfection marker.
(§2) CB1 and CB2 radioligand binding data were obtained using National Institute of Mental Health (NIMH) Psychoactive Drug Screening Program (PDSP) resources as described earlier. Compounds were screened in a competitive binding experiment using, respectively, membrane fractions prepared from rat brain homogenate expressing CB1 receptor and HEK293 cells expressing the human CB2 receptor. Experiments were conducted at a range of different concentrations and in duplicate. The competition binding experiment for CB1 and CB2 was performed in 96 well plates containing Standard Binding Buffer (50 mM Tris HCl, 1 mM EDTA, 3 mM MgCl2, 5 mg/ml fatty acid-free BSA, pH 7.4). The radioligand was [^3H]CP55940, and the reference compound was CP55940. A solution of the compound to be tested was prepared as a 1 mg/ml stock in DMSO and then diluted in Standard Binding Buffer by serial dilution. Radioligand was diluted to five times the assay concentration in Standard Binding Buffer. Aliquots (50 μl) of radioligand were dispensed into the wells of a 96-well plate containing 100 μl of Standard Binding Buffer. Then, duplicate 50-μl aliquots of the test and reference compound dilutions were added. Finally, crude membrane fractions of cells were resuspended in 3 ml of chilled Standard Binding Buffer and homogenized by several passages through a 26 gauge needle, then 50 μl were dispensed into each well. The 250-μl reactions were incubated at room temperature for 1.5 hours, and then harvested by rapid filtration onto Whatman GF/B glass fiber filters pre-soaked with 0.3% polyethyleneimine using a 96-well Brandel harverster. Four rapid 500-μl washes were performed. Filters were placed in 6-ml scintillation tubes and allowed to dry overnight. Bound radioactivity was harvested onto 0.3% polyethyleneimine-treated, 96-well filter mats using a 96-well Filtermate harvester. The filter mats were dried, then scintillant was melted onto the filters and the radioactivity retained on the filters counted in a Microbeta scintillation counter. Raw data (dpm) representing total radioligand binding (i.e., specific + non-specific binding) were plotted as a function of the logarithm of the molar concentration of the competitor (i.e., test or reference compound). Non-linear regression of the normalized (i.e., percent radioligand binding compared to that observed in the absence of test or reference compound) raw data was performed in Prism 4.0 (GraphPad Software) using the built-in three parameter logistic model describing ligand competition binding to radioligand-labeled sites: y = bottom + [(top-bottom)/(1 + 10 × -logIC50)] where bottom equals the residual radioligand binding measured in the presence of 10 μM reference compound (i.e., non-specific binding) and top equals the total radioligand binding observed in the absence of competitor. The log IC50 (i.e., the log of the ligand concentration that reduces radioligand binding by 50%) is thus estimated from the data and used to obtain the Ki by applying the Cheng-Prusoff approximation: Ki = IC50/(1 + [ligand]/KD) where [ligand] equals the assay radioligand concentration and KD equals the affinity constant of the radioligand for the target receptor.

Human CB2 [2] = target: T1, Human CB2; assay: GTPγ[35S] functional assay, CHO cell membrane extracts; format: biochemical; parameters: expressed in transfected cells; host or cells: CHO cells (membrane extracts); settings: for Emax: read-out: GTPγ[35S] functional assays Human CB2 Emax
Rat CB1 = target: T2, Rat CB1 (Rattus norvegicus, UniProt P20272); assay: Radioligand competitive binding, [3H]CP55940, rat brain homogenate; settings: for Rat CB1 (%) primary radioligand competitive binding: ligand 10 μM, rat brain homogenates
T2 construct: membrane fractions prepared from rat brain homogenate expressing CB1 receptor; from tissue; host or cells: rat brain homogenate
Protocol: as §2

human 5-HT2A = target: T3, human 5-HT2A (Homo sapiens, UniProt P28223); assay: Primary radioligand competitive binding assay, [3H]ketanserin; settings: ligand 10 μM, HEK293 cells
T3 construct: expressed in transfected cells; host or cells: HEK293 (Flp-In system, pcDNA5.0FRT)
Protocol: as §1
Radioligand binding data were obtained using National Institute of Mental Health's Psychoactive Drug Screening Program (NIMH/PDSP) using the same protocol described for CB1 and CB2 binding experiments. Transfected HEK293 (human 5-HT2A or rat 5-HT2C) cells were used. The radioligands were [^3H]ketanserin (0.5 nM) and [^3H]mesulergine (0.5 nM) for respectively 5-HT2A and 5-HT2C experiments. Non-specific binding was determined in the presence of 10 μM chlorpromazine for both 5-HT2A and 5-HT2C binding experiments. Cells were harvested and homogenized in 50 mM Tris HCl, 10 mM MgCl2, 0.1 mM EDTA, pH 7.4. Incubation of radioreceptor binding assay mixtures was 1.5 hours at room temperature in the dark.

T2 sequence (P20272 whole entry): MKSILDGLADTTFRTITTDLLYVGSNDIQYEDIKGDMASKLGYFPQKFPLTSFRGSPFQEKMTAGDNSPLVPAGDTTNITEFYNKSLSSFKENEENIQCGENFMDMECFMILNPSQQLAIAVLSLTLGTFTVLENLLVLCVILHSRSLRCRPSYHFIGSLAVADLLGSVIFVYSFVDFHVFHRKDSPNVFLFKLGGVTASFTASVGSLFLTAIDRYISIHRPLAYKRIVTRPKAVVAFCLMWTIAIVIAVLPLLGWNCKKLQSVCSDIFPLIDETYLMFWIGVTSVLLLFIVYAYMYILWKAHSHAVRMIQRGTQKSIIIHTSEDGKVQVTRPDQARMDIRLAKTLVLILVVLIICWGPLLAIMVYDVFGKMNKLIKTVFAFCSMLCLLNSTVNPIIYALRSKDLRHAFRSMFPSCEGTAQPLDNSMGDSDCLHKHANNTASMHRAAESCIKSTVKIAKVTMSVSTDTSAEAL
T1 sequence (P34972 whole entry): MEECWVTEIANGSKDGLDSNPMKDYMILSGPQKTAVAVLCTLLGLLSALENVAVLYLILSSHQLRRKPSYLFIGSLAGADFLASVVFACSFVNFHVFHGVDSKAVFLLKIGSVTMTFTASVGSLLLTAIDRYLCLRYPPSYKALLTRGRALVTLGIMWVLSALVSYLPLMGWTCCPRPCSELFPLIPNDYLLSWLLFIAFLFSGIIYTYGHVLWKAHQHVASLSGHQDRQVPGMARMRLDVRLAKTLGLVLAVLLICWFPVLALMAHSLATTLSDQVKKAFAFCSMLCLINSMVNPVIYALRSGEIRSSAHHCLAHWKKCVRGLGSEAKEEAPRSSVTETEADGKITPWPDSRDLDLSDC
T3 sequence (P28223 whole entry): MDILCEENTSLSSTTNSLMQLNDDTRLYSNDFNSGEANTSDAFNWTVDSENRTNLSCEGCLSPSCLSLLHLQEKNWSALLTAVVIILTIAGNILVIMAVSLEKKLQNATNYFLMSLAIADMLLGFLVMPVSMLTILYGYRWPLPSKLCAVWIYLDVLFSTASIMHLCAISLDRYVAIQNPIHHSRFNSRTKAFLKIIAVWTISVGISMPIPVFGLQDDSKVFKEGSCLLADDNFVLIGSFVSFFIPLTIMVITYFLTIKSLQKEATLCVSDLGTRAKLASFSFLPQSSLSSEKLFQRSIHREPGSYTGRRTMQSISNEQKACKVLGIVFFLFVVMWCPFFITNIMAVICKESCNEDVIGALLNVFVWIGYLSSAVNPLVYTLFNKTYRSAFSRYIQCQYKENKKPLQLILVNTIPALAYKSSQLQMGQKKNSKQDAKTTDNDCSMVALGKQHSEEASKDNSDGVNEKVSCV

## CCCCCn1c2c(c3ccc(OC)cc31)CN(C(=O)c1ccccc1)CC2 [NMP-144]
formalin-induced pain
  effect on second phase of formalin-induced nociception: no effect was observed
  effect on first phase of formalin-induced nociception: no effect was observed
formalin-induced pain; i.t.
  reduction of pain response time, first (neurogenic) phase: 52 ± 3%
  reduction of pain response time, second (inflammatory) phase: 53 ± 14%
formalin-induced pain; i.t., formalin response
  lowest dose producing analgesia: 0.3 μg/i.t.
Human CB2 [1]
  Ki: 706 ± 110 nM
  Human CB2 (%) primary radioligand competitive binding: 90.6%
Human CB2 [2]
  EC50: 35.7 ± 13.9 nM
  Emax: -48.1%
Rat CB1
  Ki: 1140 ± 264 nM
  Rat CB1 (%) primary radioligand competitive binding: 67.4%
Human 5-HT2A
  Human 5-HT2A (%) primary radioligand competitive binding: -5.2%

## CCCCCn1c2ccc(C(=O)N3CCCCC3)cc2c2ccc(OC)cc21 [NMP-4]
formalin-induced pain; NMP-4 0.03 μg/i.pl. pre-treatment
  effect of i.pl. pre-treatment on the antinociceptive effect of NMP-7 (1 μg/i.pl.), first phase: significantly antagonized
formalin-induced pain
  effect on second phase of formalin-induced nociception: no effect was observed
  effect on first phase of formalin-induced nociception: no effect was observed
formalin-induced pain; i.t.
  reduction of pain response time, first (neurogenic) phase: 44 ± 4%
  reduction of pain response time, second (inflammatory) phase: 87 ± 7%
Human CB2 [1]; NA: not active at 1 μM, read-out: Mean Ki Human CB2
  Ki: 7.5 ± 0.7 nM
Human CB2 [1]
  Human CB2 (%) primary radioligand competitive binding: 104.4%
Human CB2 [2]
  EC50: 9.8 ± 0.3 nM
  Emax: -76.4%
Rat CB1; NA: not active at 1 μM, read-out: Mean Ki Rat CB1
  Ki: 12.8 ± 1.8 nM
Rat CB1
  Rat CB1 (%) primary radioligand competitive binding: 99.3%
Human 5-HT2A
  Human 5-HT2A (%) primary radioligand competitive binding: 23.9%
